Laboratory results taken from patent publication US11117892B2, “Pyrrolo-pyridine derivative compound, method for preparing same, and pharmaceutical composition containing same as active ingredient for prevention or treatment of protein kinase-related diseases” (DAEGU-GYEONGBUK MEDICAL INNOVATION FOUNDATION, priority 2017, dated 2021).
Read-outs that look alike come from different tables or passages of the source.

Assays:
Assay in all cases: scanMAX Kinase assay panel
Format in all cases: binding
[1] = target: ACVR2B (Homo sapiens (Human), UniProt Q13705); conditions: read-out: % control
Procedure, shortened: (§1)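 Selectivity was measured on the scanMAX platform. The compound signal minus the positive-control signal was divided by the DMSO-minus-positive-control window and multiplied by 100.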

[2] = target: AKT3 (Homo sapiens (Human), UniProt Q9Y243); conditions: read-out: % control
Procedure, shortened: as §1

[3] = target: ASK1 (Homo sapiens (Human), UniProt Q99683); conditions: read-out: % control
Procedure, shortened: as §1

[4] = target: AURKB (Homo sapiens (Human), UniProt Q96GD4); conditions: read-out: % control
Procedure, shortened: as §1

[5] = target: BTK (Homo sapiens (Human), UniProt Q06187); conditions: read-out: % control
Procedure, shortened: as §1

[6] = target: CAMK1G (Homo sapiens (Human), UniProt Q96NX5); conditions: read-out: % control
Procedure, shortened: as §1

[7] = target: CSK (Homo sapiens (Human), UniProt P41240); conditions: read-out: % control
Procedure, shortened: as §1

[8] = target: CSNK1A1 (Homo sapiens (Human), UniProt P48729); conditions: read-out: % control
Procedure, shortened: as §1

[9] = target: CSNK1G2 (Homo sapiens (Human), UniProt P78368); conditions: read-out: % control
Procedure, shortened: as §1

[10] = target: DAPK2 (Homo sapiens (Human), UniProt Q9UIK4); conditions: read-out: % control
Procedure, shortened: as §1

[11] = target: DDR2 (Homo sapiens (Human), UniProt Q16832); conditions: read-out: % control
Procedure, shortened: as §1

[12] = target: DLK (Homo sapiens (Human), UniProt Q12852); conditions: read-out: % control
Procedure, shortened: as §1

[13] = target: EGFR(L858R, T790M) (Homo sapiens (Human), UniProt P00533, L858R/T790M); conditions: read-out: % control
Procedure, shortened: as §1

[14] = target: EGFR(T790M) (Homo sapiens (Human), UniProt P00533, T790M); conditions: read-out: % control
Procedure, shortened: as §1

[15] = target: ERK8 (Homo sapiens (Human), UniProt Q8TD08); conditions: read-out: % control
Procedure, shortened: as §1

[16] = target: FGFR2 (Homo sapiens (Human), UniProt P21802); conditions: read-out: % control
Procedure, shortened: as §1

[17] = target: FGFR3(G697C) (Homo sapiens (Human), UniProt P22607, G697C); conditions: read-out: % control
Procedure, shortened: as §1

[18] = system: FLT3(ITD, F691L); conditions: 1 uM
Procedure, shortened: as §1

[19] = target: GSK3A (Homo sapiens (Human), UniProt P49840); conditions: read-out: % control
Procedure, shortened: as §1

[20] = target: JAK3(JH1domain-catalytic) (Homo sapiens (Human), UniProt P52333); conditions: read-out: % control
Procedure, shortened: as §1

[21] = target: LRRK2(G2019S) (Homo sapiens (Human), UniProt Q5S007, G2019S); conditions: read-out: % control
Procedure, shortened: as §1

[22] = target: MAPKAPK2 (Homo sapiens (Human), UniProt P49137); conditions: read-out: % control
Procedure, shortened: as §1

[23] = target: MAPKAPK5 (Homo sapiens (Human), UniProt Q8IW41); conditions: read-out: % control
Procedure, shortened: as §1

[24] = target: MARK1 (Homo sapiens (Human), UniProt Q9P0L2); conditions: read-out: % control
Procedure, shortened: as §1

[25] = target: NDR1 (Homo sapiens (Human), UniProt Q15208); conditions: read-out: % control
Procedure, shortened: as §1

[26] = target: PAK2 (Homo sapiens (Human), UniProt Q13177); conditions: read-out: % control
Procedure, shortened: as §1

[27] = target: PHKG2 (Homo sapiens (Human), UniProt P15735); conditions: read-out: % control
Procedure, shortened: as §1

[28] = target: PRKCH (Homo sapiens (Human), UniProt P24723); conditions: read-out: % control
Procedure, shortened: as §1

[29] = target: PRKCQ (Homo sapiens (Human), UniProt Q04759); conditions: read-out: % control
Procedure, shortened: as §1

[30] = target: PRKD2 (Homo sapiens (Human), UniProt Q9BZL6); conditions: read-out: % control
Procedure, shortened: as §1

[31] = target: RIPK4 (Homo sapiens (Human), UniProt P57078); conditions: read-out: % control
Procedure, shortened: as §1

[32] = target: SIK2 (Homo sapiens (Human), UniProt Q9H0K1); conditions: read-out: % control
Procedure, shortened: as §1

[33] = target: SRMS (Homo sapiens (Human), UniProt Q9H3Y6); conditions: read-out: % control
Procedure, shortened: as §1

[34] = target: TAOK2 (Homo sapiens (Human), UniProt Q9UL54); conditions: read-out: % control
Procedure, shortened: as §1

[35] = target: TNIK (Homo sapiens (Human), UniProt Q9UKE5); conditions: read-out: % control
Procedure, shortened: as §1

[36] = target: TSSK3 (Homo sapiens (Human), UniProt Q96PN8); conditions: read-out: % control
Procedure, shortened: as §1

[37] = target: WNK1 (Homo sapiens (Human), UniProt Q9H4A3); conditions: read-out: % control
Procedure, shortened: as §1

[38] = target: YSK4 (Homo sapiens (Human), UniProt Q56UN5); conditions: read-out: % control
Procedure, shortened: as §1

[39] = target: p38-delta (Homo sapiens (Human), UniProt O15264); conditions: read-out: % control
Procedure, shortened: as §1

Chain of MARK1 (Q9P0L2 whole entry): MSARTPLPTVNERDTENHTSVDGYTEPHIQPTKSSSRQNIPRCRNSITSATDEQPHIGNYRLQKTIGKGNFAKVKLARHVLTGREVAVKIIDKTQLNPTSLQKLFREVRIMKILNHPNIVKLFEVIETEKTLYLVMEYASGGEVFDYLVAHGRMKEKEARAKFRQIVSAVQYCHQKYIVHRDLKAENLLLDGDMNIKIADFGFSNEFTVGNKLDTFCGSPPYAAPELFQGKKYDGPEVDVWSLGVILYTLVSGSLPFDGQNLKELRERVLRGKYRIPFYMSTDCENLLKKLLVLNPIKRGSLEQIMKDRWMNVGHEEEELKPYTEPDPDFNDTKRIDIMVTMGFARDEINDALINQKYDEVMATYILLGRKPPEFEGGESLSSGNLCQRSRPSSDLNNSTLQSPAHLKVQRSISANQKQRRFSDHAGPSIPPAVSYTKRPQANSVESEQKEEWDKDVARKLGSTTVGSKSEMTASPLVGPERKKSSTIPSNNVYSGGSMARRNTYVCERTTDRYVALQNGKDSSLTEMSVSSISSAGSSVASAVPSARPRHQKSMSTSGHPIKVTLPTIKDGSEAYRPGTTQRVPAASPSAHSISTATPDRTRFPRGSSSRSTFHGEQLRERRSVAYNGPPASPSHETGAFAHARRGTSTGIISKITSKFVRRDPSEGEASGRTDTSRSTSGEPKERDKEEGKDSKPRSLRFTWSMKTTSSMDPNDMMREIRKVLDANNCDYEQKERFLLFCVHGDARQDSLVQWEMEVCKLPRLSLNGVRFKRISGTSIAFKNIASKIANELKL
Chain of p38-delta (O15264 whole entry): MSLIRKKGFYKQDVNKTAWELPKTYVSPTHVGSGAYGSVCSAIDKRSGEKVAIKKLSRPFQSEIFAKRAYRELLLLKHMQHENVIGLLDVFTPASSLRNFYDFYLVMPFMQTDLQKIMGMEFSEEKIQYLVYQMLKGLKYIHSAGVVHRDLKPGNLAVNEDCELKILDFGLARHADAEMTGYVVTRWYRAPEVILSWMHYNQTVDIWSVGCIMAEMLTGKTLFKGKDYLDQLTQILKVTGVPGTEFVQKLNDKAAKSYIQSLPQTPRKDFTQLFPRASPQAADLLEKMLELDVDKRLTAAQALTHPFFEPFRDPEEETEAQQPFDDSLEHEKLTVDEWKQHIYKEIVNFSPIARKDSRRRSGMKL
Chain of PRKD2 (Q9BZL6 whole entry): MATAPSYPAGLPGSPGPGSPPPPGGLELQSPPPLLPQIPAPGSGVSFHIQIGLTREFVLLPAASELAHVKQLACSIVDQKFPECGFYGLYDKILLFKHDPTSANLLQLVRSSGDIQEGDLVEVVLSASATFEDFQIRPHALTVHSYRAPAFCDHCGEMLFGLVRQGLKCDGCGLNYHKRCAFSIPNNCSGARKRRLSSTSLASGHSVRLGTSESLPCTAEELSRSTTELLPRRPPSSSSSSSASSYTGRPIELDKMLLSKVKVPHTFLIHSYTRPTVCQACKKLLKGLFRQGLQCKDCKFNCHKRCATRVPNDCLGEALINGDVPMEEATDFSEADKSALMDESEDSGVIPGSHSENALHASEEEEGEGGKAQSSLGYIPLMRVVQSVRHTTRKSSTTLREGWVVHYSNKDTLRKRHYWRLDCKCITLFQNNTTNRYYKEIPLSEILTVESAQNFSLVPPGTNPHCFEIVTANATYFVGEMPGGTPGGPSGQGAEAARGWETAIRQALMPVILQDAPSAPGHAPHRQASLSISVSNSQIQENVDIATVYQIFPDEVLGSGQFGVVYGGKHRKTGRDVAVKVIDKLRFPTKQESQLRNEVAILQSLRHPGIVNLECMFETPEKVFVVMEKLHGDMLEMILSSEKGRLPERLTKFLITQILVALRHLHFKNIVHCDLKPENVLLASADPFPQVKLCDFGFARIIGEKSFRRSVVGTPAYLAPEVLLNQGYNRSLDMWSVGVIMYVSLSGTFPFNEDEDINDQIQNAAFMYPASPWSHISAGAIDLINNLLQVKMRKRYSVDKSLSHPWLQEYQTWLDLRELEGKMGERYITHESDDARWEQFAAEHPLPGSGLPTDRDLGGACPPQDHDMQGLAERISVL
Chain of PAK2 (Q13177 whole entry): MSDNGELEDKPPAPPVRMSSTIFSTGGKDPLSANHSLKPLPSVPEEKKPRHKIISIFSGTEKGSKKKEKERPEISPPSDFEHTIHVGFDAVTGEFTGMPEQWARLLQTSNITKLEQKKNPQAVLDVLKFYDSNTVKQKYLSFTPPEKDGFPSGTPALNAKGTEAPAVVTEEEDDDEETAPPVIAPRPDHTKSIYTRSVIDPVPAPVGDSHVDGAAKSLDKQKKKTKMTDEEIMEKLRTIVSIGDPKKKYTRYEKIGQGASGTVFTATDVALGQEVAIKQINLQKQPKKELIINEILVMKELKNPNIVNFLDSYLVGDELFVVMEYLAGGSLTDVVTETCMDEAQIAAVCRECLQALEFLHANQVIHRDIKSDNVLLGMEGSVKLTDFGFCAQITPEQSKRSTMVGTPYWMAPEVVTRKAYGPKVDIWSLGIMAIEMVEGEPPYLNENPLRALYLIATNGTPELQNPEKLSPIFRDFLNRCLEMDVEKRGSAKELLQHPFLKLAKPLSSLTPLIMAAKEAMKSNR
Chain of AURKB (Q96GD4 whole entry): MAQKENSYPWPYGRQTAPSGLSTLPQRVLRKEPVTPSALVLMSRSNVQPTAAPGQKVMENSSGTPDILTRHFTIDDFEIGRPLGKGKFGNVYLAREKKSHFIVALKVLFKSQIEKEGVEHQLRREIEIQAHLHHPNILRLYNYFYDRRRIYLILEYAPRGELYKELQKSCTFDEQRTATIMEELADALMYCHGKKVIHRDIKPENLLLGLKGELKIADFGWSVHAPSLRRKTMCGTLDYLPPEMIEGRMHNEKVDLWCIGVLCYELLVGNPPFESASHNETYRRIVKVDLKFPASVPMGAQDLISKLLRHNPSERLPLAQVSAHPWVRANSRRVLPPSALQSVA
Chain of YSK4 (Q56UN5 whole entry): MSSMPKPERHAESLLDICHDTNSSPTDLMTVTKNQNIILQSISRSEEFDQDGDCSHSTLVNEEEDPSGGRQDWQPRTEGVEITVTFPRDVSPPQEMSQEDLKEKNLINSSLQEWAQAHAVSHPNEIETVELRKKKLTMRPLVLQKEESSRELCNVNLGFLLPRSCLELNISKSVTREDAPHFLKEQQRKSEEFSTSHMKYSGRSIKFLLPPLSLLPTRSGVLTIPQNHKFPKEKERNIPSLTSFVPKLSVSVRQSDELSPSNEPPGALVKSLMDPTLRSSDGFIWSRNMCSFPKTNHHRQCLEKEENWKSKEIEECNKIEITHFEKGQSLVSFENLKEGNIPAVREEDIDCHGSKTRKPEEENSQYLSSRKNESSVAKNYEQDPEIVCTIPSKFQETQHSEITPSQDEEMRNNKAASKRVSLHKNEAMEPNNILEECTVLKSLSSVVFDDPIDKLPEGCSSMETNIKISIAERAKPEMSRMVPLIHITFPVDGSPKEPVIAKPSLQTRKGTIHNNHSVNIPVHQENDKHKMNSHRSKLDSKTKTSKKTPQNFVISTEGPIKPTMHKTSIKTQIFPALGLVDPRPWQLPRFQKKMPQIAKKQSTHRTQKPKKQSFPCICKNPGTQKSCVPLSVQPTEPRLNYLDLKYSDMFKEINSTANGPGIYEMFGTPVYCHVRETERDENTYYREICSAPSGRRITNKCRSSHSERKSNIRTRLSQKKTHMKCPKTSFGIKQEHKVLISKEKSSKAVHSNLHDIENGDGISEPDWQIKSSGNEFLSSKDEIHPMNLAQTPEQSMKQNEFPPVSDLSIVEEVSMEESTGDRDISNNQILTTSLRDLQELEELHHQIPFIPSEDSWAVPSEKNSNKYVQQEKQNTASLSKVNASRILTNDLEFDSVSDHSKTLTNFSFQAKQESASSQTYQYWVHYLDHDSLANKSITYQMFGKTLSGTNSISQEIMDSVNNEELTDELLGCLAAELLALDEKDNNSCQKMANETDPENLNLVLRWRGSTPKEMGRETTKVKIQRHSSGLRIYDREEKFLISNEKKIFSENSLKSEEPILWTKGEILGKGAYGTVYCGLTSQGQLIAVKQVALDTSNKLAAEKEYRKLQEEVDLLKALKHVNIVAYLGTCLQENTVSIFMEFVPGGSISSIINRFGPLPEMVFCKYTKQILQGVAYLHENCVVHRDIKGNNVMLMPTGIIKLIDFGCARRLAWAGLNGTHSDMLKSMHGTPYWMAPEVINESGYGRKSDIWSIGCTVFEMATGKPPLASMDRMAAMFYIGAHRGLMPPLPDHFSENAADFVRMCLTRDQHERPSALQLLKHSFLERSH
Chain of PRKCQ (Q04759 whole entry): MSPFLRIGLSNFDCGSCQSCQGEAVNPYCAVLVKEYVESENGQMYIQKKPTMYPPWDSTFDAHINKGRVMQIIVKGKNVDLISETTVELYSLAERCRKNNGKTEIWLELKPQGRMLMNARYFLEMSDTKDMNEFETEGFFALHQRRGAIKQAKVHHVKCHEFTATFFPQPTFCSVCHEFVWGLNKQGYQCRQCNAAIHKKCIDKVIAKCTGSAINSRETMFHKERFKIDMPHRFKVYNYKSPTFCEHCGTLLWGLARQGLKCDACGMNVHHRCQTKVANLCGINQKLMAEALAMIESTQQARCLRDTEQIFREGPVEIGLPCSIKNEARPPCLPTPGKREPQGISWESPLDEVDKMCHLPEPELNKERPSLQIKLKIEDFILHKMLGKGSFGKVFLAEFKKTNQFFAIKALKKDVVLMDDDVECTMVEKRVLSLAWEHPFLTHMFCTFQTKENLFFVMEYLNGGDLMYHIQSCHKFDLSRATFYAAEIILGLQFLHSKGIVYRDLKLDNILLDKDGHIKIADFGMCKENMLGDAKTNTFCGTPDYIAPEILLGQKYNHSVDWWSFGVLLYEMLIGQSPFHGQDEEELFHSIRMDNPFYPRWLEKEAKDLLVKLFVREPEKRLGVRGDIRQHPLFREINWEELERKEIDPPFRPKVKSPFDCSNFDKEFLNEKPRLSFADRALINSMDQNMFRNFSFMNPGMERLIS

| SMILES | remaining binding at 1 µM [1] | remaining binding at 1 µM [2] | remaining binding at 1 µM [3] | remaining binding at 1 µM [4] | remaining binding at 1 µM [5] | remaining binding at 1 µM [6] | remaining binding at 1 µM [7] | remaining binding at 1 µM [8] | remaining binding at 1 µM [9] | remaining binding at 1 µM [10] | remaining binding at 1 µM [11] | remaining binding at 1 µM [12] | remaining binding at 1 µM [13] | remaining binding at 1 µM [14] | remaining binding at 1 µM [15] | remaining binding at 1 µM [16] | remaining binding at 1 µM [17] | % control [18] | remaining binding at 1 µM [20] | remaining binding at 1 µM [21] | also measured |
| --- | --- | --- | --- | --- | --- | --- | --- | --- | --- | --- | --- | --- | --- | --- | --- | --- | --- | --- | --- | --- | --- |
| CCNc1cc(Nc2ccc(C(=O)N3CCC(N4CCOCC4)CC3)cc2OC)nc2[nH]cc(C#N)c12 [Example 18, 4-(ethylamino)-6-((2-methoxy-4-(4-morpholinopiperidine-1-carbonyl)phenyl)amino)-1H-pyrrolo[2,3-b]pyridine-3-carbonitrile] | 100% | 96% | 79% | 73% | 99% | 71% | 93% | 8.2% | 27% | 16% | 98% | 79% | 81% | 100% | 99% | 85% | 88% | 46% | 54% | 0.6% | remaining binding at 1 µM ([19]; GSK3A, 1 uM): 100%; remaining binding at 1 µM [22]: 21%; remaining binding at 1 µM [23]: 43%; remaining binding at 1 µM [24]: 84%; remaining binding at 1 µM [25]: 69%; remaining binding at 1 µM [26]: 82%; remaining binding at 1 µM [27]: 12%; remaining binding at 1 µM [28]: 95%; remaining binding at 1 µM [29]: 94%; remaining binding at 1 µM [30]: 2%; remaining binding at 1 µM [31]: 69%; remaining binding at 1 µM [32]: 87%; remaining binding at 1 µM [33]: 80%; remaining binding at 1 µM [34]: 77%; remaining binding at 1 µM [35]: 89%; remaining binding at 1 µM [36]: 30%; remaining binding at 1 µM [37]: 93%; remaining binding at 1 µM [38]: 6.7%; remaining binding at 1 µM [39]: 99% |
| CCNc1cc(Nc2ccc(C(=O)N3CCC(N4CCOCC4)CC3)cc2OC)nc2[nH]cc(C(F)(F)F)c12 [Example 57, (4-((4-(ethylamino)-3-(trifluoromethyl)-1H-pyrrolo[2,3-b]pyridin-6-yl)amino)-3-methoxyphenyl) (4-morpholinopiperidin-1-yl)methanone] | 98% | 96% | 77% | 81% | 100% | 63% | 76% | 51% | 86% | 71% | 91% | 100% | 73% | 88% | 93% | 72% | 78% | 84% | 100% | 27% | remaining binding at 1 µM [19]: 90%; remaining binding at 1 µM [22]: 51%; remaining binding at 1 µM [23]: 100%; remaining binding at 1 µM [24]: 82%; remaining binding at 1 µM [25]: 89%; remaining binding at 1 µM [26]: 40%; remaining binding at 1 µM [27]: 23%; remaining binding at 1 µM [28]: 99%; remaining binding at 1 µM [29]: 96%; remaining binding at 1 µM [30]: 83%; remaining binding at 1 µM [31]: 95%; remaining binding at 1 µM [32]: 95%; remaining binding at 1 µM [33]: 96%; remaining binding at 1 µM [34]: 85%; remaining binding at 1 µM [35]: 94%; remaining binding at 1 µM [36]: 91%; remaining binding at 1 µM [37]: 100%; remaining binding at 1 µM [38]: 100%; remaining binding at 1 µM [39]: 85% |
